Assays:
[1] = target: T1, human Kv3.2 channels (hKv3.2) (Homo sapiens, UniProt Q96PR1); test: IonWorks Quattro whole-cell current potentiation assay, hKv3.2 (Biological Example 1); assay type: cell-based; conditions: recombinant cell assay, -15 mV voltage step; positive modulator = at least 20% of effect of 50 microM reference compound
T1 construct: expressed in transfected cells
T1 sequence (Q96PR1 1-638): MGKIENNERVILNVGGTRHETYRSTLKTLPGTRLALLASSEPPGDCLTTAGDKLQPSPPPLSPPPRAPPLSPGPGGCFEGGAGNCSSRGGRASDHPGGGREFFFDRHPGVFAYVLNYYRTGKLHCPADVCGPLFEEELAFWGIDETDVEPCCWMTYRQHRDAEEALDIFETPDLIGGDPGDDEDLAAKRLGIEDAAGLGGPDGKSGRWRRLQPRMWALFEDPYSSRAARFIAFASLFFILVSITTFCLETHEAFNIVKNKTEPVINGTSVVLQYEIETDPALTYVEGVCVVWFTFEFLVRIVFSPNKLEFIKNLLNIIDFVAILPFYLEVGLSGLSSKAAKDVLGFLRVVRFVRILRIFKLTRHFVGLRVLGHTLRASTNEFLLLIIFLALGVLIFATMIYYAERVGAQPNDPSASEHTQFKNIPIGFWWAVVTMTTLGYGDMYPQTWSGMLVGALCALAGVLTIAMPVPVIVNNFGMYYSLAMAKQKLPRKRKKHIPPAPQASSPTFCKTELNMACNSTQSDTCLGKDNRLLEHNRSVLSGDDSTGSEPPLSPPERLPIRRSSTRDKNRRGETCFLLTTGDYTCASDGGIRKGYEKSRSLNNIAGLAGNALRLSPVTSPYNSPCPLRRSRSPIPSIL
Text: (§1) The ability of the compound of the invention to modulate the voltage-gated potassium channel subtypes Kv3.2 or Kv3.1 may be determined using the following assay. Analogous methods may be used to investigate the ability of the compound of the invention to modulate other channel subtypes, including Kv3.3 and Kv3.4.
To assess compound effects on human Kv3.2 channels (hKv3.2), a stable cell line expressing hKv3.2 was created by transfecting Chinese Hamster Ovary (CHO)-K1 cells with a pClH5-hKv3.2 vector. Cells were cultured in DMEM/F12 medium supplemented by 10% Foetal Bovine Serum, 1× non-essential amino acids (Invitrogen) and 500 ug/ml of Hygromycin-B (Invitrogen). Cells were grown and maintained at 37° C. in a humidified environment containing 5% CO2 in air.
The day of the experiment, cells were removed from the incubator and the culture medium removed. […]
(§2) Experiments were conducted at room temperature using IonWorks Quattro™ planar array electrophysiology technology (Molecular Devices Corp.) with PatchPlate™ PPC. […] Planar electrode hole resistances(Rp) were determined by applying a 10 mV voltage step across each well. […] Test pulses protocol may be performed in the absence (pre-read) and presence (post-read) of the test compound. Pre- and post-reads may be separated by the compound addition followed by a 3 minute incubation. […]

[2] = Determination of in vivo pharmacokinetic parameters (Biological Example 3); design: species or system rat; conditions: for Tmax: Median
Protocol: […] After oral administration, blood samples are collected under deep Isofluorane anesthesia from the portal vein and heart of each rat (1 rat per time point). After intravenous administration, serial blood samples are collected from the lateral tail vein of each rat. A further group of rats (n=1 per test compound) receive a single intravenous administration of the PgP transport inhibitor, Elacridar (3 mg/kg) shortly before the oral administration of the test compound at 1 mg/kg, as above. Blood and brain samples ar collected at a single timepoint of 0.5 h after dose administration for these animals. In all cases, blood samples are collected into potassium EDTA tubes.
Blood and brain samples can be assayed for test compound concentration using a method based on protein precipitation with acetonitrile followed by HPLC/MS-MS analysis with an optimized analytical method.
The concentrations of test compound in blood (expressed as ng/ml) and brain (expressed as ng/g) at the different time points following either oral or intravenous dosing are analysed using a non-compartmental pharmacokinetic model using WinNonLin Professional version 4.1. The following parameters are derived:
Intravenous dosing: Maximum concentration over time (Cmax), integrated concentration over time (AUC), clearance (Clb), volume of distribution (Vss) and half-life (t1/2).
Oral dosing: Cmax, time of maximum concentration (Tmax), AUC, bioavailability (F %), fraction absorbed (Fa %), blood to brain ratio (AUC BB), and Fold-change in AUC BB in the presence of Elacridar.

[3] = target: T2, human Kv3.1 channels (hKv3.1) (Homo sapiens, UniProt P48547); test: IonWorks Quattro whole-cell current potentiation assay, hKv3.1 (Biological Example 1); assay type: cell-based; conditions: recombinant cell assay, -15 mV voltage step; positive modulator = at least 20% of effect of 50 microM reference compound
T2 construct: expressed in transfected cells; host or cells: CHO/Gam/E1A-clone22 (CGE22) cells, CHO-K1-derived, transduced with BacMam pFBM/human Kv3.1
T2 sequence (P48547 1-511): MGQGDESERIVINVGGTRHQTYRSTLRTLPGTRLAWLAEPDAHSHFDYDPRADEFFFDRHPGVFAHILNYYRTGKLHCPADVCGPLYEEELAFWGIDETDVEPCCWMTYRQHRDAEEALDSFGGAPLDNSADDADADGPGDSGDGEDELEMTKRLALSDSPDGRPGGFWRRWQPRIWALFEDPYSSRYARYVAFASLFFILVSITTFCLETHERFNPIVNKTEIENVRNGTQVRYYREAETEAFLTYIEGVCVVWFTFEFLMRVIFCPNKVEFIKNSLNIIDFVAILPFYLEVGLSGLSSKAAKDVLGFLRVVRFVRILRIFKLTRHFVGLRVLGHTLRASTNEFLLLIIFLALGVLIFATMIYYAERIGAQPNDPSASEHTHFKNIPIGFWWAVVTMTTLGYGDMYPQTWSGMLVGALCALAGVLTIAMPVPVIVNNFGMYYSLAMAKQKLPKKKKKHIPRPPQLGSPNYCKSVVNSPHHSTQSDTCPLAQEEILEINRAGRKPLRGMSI
Text: as §1
To assess compound effects on human Kv3.1 channels (hKv3.1), CHO/Gam/E1A-clone22 alias CGE22 cells were transduced using a hKv3.1 BacMam reagent. This cell line was designed to be an improved CHO-K1-based host for enhanced recombinant protein expression as compared to wild type CHO-K1.
The cell line was generated following the transduction of CHO-K1 cells with a BacMam virus expressing the Adenovirus-Gam1 protein and selection with Geneticin-G418, to generate a stable cell line, CHO/Gam-A3. […]
as §2

[4] = male, rat, whole blood, Blood, IV 1 mg/kg, Mean
[5] = male, rat, whole blood, Blood, PO 3 mg/kg, Mean

With `CC[C@H]1NC(=O)N(c2ccc(Oc3ccc(C)c4c3C3(CC3)CO4)cn2)C1=O` [compound of the invention] the “modulation of Kv3.2 channels (whole-cell currents)” value [1] was “positive modulators”, the “Bioavailability (%) Using AUCinf” value ([2]; Blood, PO 3 mg/kg vs IV 1 mg/kg) was 138% and the availability ([2]; in vivo pharmacokinetics) was “good availability”. It also gave an AUC(0-inf) [2, 4] of 353 ng·h/mL, a Cmax [2, 4] of 904 ng/mL and a clearance [2, 4] of 47.6 mL/min/kg. It also gave a half-life [2, 4] of 15.6 min, a Vd ([2]; male, rat, whole blood, Blood, IV 1 mg/kg, Mean, read-out: Vdss) of 1 L/kg and a Tmax ([2]; male, rat, whole blood, Blood, IV 1 mg/kg) of 4.98 min. The AUC(0-inf) [2, 5] was 1440 ng·h/mL, the Cmax [2, 5] was 1660 ng/mL and the half-life [2, 5] was 24.6 min. For the same compound, the Tmax ([2]; male, rat, whole blood, Blood, PO 3 mg/kg) was 15 min and the “modulation of Kv3.1 channels (whole-cell currents)” value [3] was “positive modulators”.

— patent US20200039970A1, “HYDANTOIN MODULATORS OF KV3 CHANNELS” (Autifony Therapeutics Limited, priority 2016, published 2020)
